Test results published in patent US6225478A, “Iridoid derivatives and neovascularization inhibitors containing the same as active ingredient” (Tsumura & Co., priority 1999, dated 2001).

Key:
HUFEC = test: Cell Migration Assay (CMA) Test, inhibitory rate with control (-) correction; type: cell-based, human; settings: Homo sapiens, 24 h, 125 μl of 0.32 mM sample solution in 4.0 ml medium, 80% or more = remarkable
How it was run: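 Confluent HUFEC monolayers were scratch-wounded, then cultured 24 h at 37 °C, 5% CO2 in M199 (2+) medium with compound added as 125 μl of a 0.32 mM solution (3.2% DMSO) per 4 ml. Giemsa-stained cells migrating into 1 mm×1 mm blocks counted; inhibition % calculated relative to control (+) and control (−) wells.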

[1] = system: human umbilical-vein endothelial cells (HUVEC); test: Tube Formation Assay (TFA) Test, HUVEC in collagen gel; type: cell-based; settings: Homo sapiens, HUVEC, Tables 75-83; 0.32 mM sample solution; method as for Compounds 1 through 60; read-out: TFA Inhibition rate (%)
How it was run: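 HUVEC (7th subculture, 1×10^5 cells/ml) attached to collagen gel for 2 h at 37 °C, given sample and overlaid with collagen, then cultured 20 h at 37 °C, 5% CO2 in M-199 with 20% FCS, 30 ng/ml b-FGF and 0.1 μM PMA. Tube length measured by image analysis; % inhibition relative to positive and negative controls.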

SMILES | inhibition at 320 µM (stock) (HUFEC) | inhibition at 320 µM (stock) [1]
COC(=O)C1=CO[C@@H](OC(=O)NCC#N)[C@H]2[C@@H]1CC[C@@H]2C [I-176] | 11.7% | 2.2%
COC(=O)C1=CO[C@@H](OC(=O)NCc2ccccn2)[C@H]2[C@@H]1CC[C@@H]2C [I-177] | 5% | 15%
COC(=O)C1=CO[C@@H](OC(=O)NCc2cccnc2)[C@H]2[C@@H]1CC[C@@H]2C [I-178] | 6.3% | 5.8%
COC(=O)C1=CO[C@@H](OC(N)=O)[C@H]2[C@@H]1CC[C@@H]2C [I-179] | 81.3% | 5.2%
COC(=O)C1=CO[C@@H](OC(=O)N2CCN(CCO)CC2)[C@H]2[C@@H]1CC[C@@H]2C [I-180] | 50% | 7.7%
COC(=O)C1=CO[C@@H](OC(=O)NCC2CCCO2)[C@H]2[C@@H]1CC[C@@H]2C (some centres unmarked) [I-181] | 2.3% | 3.2%
COC(=O)C1=CO[C@@H](OC(=O)NCCc2ccccn2)[C@H]2[C@@H]1CC[C@@H]2C [I-182] | 3.9% | 9.6%
COC(=O)C1=CO[C@@H](OC(=O)NCc2ccccc2)[C@H]2[C@@H]1CC[C@@H]2C [I-183] | 25.4% | 8.7%
COC(=O)C1=CO[C@@H](OC(=O)N(C)Cc2ccccc2)[C@H]2[C@@H]1CC[C@@H]2C [I-184] | 37.1% | 7.4%
COC(=O)C1=CO[C@@H](OC(=O)NCCc2ccccc2F)[C@H]2[C@@H]1CC[C@@H]2C [I-185] | 15.6% | 4.9%
COC(=O)C1=CO[C@@H](OC(=O)NCc2ccc(OC)cc2)[C@H]2[C@@H]1CC[C@@H]2C [I-186] | 6.3% | 5.5%
COC(=O)C1=CO[C@@H](OC(=O)NCCO)[C@H]2[C@@H]1CC[C@@H]2C [I-187] | 31.3% | 11.7%
COC(=O)C1=CO[C@@H](OC(=O)N2CCOCC2)[C@H]2[C@@H]1CC[C@@H]2C [I-188] | 7.1% | 10.2%
COC(=O)C1=CO[C@@H](OC(=O)N(C)CCN(C)C)[C@H]2[C@@H]1CC[C@@H]2C [I-189] | 8.5% | 4.7%
COC(=O)C1=CO[C@@H](OC(=O)NCC(C)C)[C@H]2[C@@H]1CC[C@@H]2C [I-190] | 21.8% | 12.8%
COC(=O)C1=CO[C@@H](OC(=O)NCC2CCCCC2)[C@H]2[C@@H]1CC[C@@H]2C [I-191] | 8% | 6%
COC(=O)C1=CO[C@@H](OC(=O)NC2CCN(Cc3ccccc3)CC2)[C@H]2[C@@H]1CC[C@@H]2C [I-192] | 7.8% | 4.5%
CCCN(C)C(=O)O[C@@H]1OC=C(C(=O)OC)[C@H]2CC[C@H](C)[C@@H]12 [I-193] | 5.3% | 6.7%
COC(=O)C1=CO[C@@H](OC(=O)N2CC=CCC2)[C@H]2[C@@H]1CC[C@@H]2C [I-194] | 5.5% | 3%
COC(=O)C1=CO[C@@H](OC(=O)NCc2ccc(F)cc2F)[C@H]2[C@@H]1CC[C@@H]2C [I-195] | 15.7% | 3.7%
COC(=O)C1=CO[C@@H](OC(=O)NCc2ccc(Cl)c(Cl)c2)[C@H]2[C@@H]1CC[C@@H]2C [I-196] | 27.6% | 6.2%
COC(=O)C1=CO[C@@H](OC(=O)NCCc2cccs2)[C@H]2[C@@H]1CC[C@@H]2C [I-197] | 20% | 4.5%
COC(=O)C1=CO[C@@H](OC(=O)N(C)CC2OCCO2)[C@H]2[C@@H]1CC[C@@H]2C [I-198] | 7.9% | 2.9%
COC(=O)C1=CO[C@@H](OC(=O)N2CCC(Cc3ccccc3)CC2)[C@H]2[C@@H]1CC[C@@H]2C [I-199] | 25% | 6%
CCN1CCN(C(=O)O[C@@H]2OC=C(C(=O)OC)[C@H]3CC[C@H](C)[C@@H]23)CC1 [I-200] | 25% | 5.6%
COC(=O)C1=CO[C@@H](OC(=O)NCC(OC)OC)[C@H]2[C@@H]1CC[C@@H]2C [I-201] | 8.5% | 18.5%
COC(=O)C1=CO[C@@H](OC(=O)NCCOCCO)[C@H]2[C@@H]1CC[C@@H]2C [I-202] | 6.5% | 26.2%
CCN(CCO)C(=O)O[C@@H]1OC=C(C(=O)OC)[C@H]2CC[C@H](C)[C@@H]12 [I-203] | 5.9% | 15.8%

SMILES | inhibition at 320 µM (stock) (HUFEC) | inhibition at 320 µM (stock) [1]
COC(=O)C1=CO[C@@H](OC(=O)NCCc2cccc(F)c2)[C@H]2[C@@H]1CC[C@@H]2C [I-205] | 8.7% | 2%
COC(=O)C1=CO[C@@H](OC(=O)NCCc2ccc(O)cc2)[C@H]2[C@@H]1CC[C@@H]2C [I-206] | 33.6% | 14.2%
CCC(CC)NC(=O)O[C@@H]1OC=C(C(=O)OC)[C@H]2CC[C@H](C)[C@@H]12 [I-207] | 5.5% | 4.4%
COC(=O)C1=CO[C@@H](OC(=O)NC2CCCCCC2)[C@H]2[C@@H]1CC[C@@H]2C [I-208] | 7.6% | 8.2%
COC(=O)C1=CO[C@@H](OC(=O)NCCCCCO)[C@H]2[C@@H]1CC[C@@H]2C [I-209] | 8.9% | 4.9%
COC(=O)C1=CO[C@@H](OC(=O)NCCCN(C)C)[C@H]2[C@@H]1CC[C@@H]2C [I-210] | 8% | 8.9%
COC(=O)C1=CO[C@@H](OC(=O)NCc2ccc(OC(F)(F)F)cc2)[C@H]2[C@@H]1CC[C@@H]2C [I-211] | 32.1% | 20.4%
COC(=O)C1=CO[C@@H](OC(=O)NCCc2ccc(F)cc2)[C@H]2[C@@H]1CC[C@@H]2C [I-212] | 21.5% | 7.8%
COC(=O)C1=CO[C@@H](OC(=O)NCc2ccc(F)cc2)[C@H]2[C@@H]1CC[C@@H]2C [I-213] | 21.5% | 6.2%
COC(=O)C1=CO[C@@H](OC(=O)NCc2ccc(Cl)cc2)[C@H]2[C@@H]1CC[C@@H]2C [I-214] | 11.7% | 5.7%
COC(=O)C1=CO[C@@H](OC(=O)NCc2ccco2)[C@H]2[C@@H]1CC[C@@H]2C [I-215] | 21.5% | 8.1%
COC(=O)C1=CO[C@@H](OC(=O)N2CCCCC2)[C@H]2[C@@H]1CC[C@@H]2C [I-216] | 9.4% | 3.7%
COC(=O)C1=CO[C@@H](OC(=O)NCCCc2ccccc2)[C@H]2[C@@H]1CC[C@@H]2C [I-217] | 9.4% | 7.2%
COC(=O)C1=CO[C@@H](OC(=O)NC2CC2)[C@H]2[C@@H]1CC[C@@H]2C [I-218] | 25% | 5.4%
COC(=O)C1=CO[C@@H](OC(=O)N2CCSCC2)[C@H]2[C@@H]1CC[C@@H]2C [I-219] | 6.3% | 30.6%
COC(=O)C1=CO[C@@H](OC(=O)NCCc2c[nH]c3ccccc23)[C@H]2[C@@H]1CC[C@@H]2C [I-220] | 25% | 7.4%
COC(=O)C1=CO[C@@H](OC(=O)NCc2ccncc2)[C@H]2[C@@H]1CC[C@@H]2C [I-221] | 15.6% | 24.5%
COC(=O)C1=CO[C@@H](OC(=O)NCCN(C)C)[C@H]2[C@@H]1CC[C@@H]2C [I-222] | 3.7% | 20.8%
COC(=O)C1=CO[C@@H](OC(=O)NCCN2CCCCC2)[C@H]2[C@@H]1CC[C@@H]2C [I-223] | 18.8% | 17.9%
COC(=O)C1=CO[C@@H](OC(=O)NCCc2ccccc2)[C@H]2[C@@H]1CC[C@@H]2C [I-224] | 15.6% | 10.5%
COC(=O)C1=CO[C@@H](OC(=O)N2CCc3ccccc3C2)[C@H]2[C@@H]1CC[C@@H]2C [I-225] | 25% | 5.5%
COCCCNC(=O)O[C@@H]1OC=C(C(=O)OC)[C@H]2CC[C@H](C)[C@@H]12 [I-226] | 17.2% | 15.3%
COC(=O)C1=CO[C@@H](OC(=O)N(C)CCc2ccc(OC)c(OC)c2)[C@H]2[C@@H]1CC[C@@H]2C [I-227] | 17.2% | 7.4%
C=CCNC(=O)O[C@@H]1OC=C(C(=O)OC)[C@H]2CC[C@H](C)[C@@H]12 [I-228] | 7.2% | 2.7%
COC(=O)C1=CO[C@@H](OC(=O)NCCCN2CCOCC2)[C@H]2[C@@H]1CC[C@@H]2C [I-229] | 19.5% | 3%
C=CCN(CC=C)C(=O)O[C@@H]1OC=C(C(=O)OC)[C@H]2CC[C@H](C)[C@@H]12 [I-230] | 28.7% | 6.4%
COC(=O)C1=CO[C@@H](OC(=O)NCc2ccccc2F)[C@H]2[C@@H]1CC[C@@H]2C [I-231] | 9.7% | 5.9%
